{
  "source": "patent US20100298314A1",
  "about": "“NOVEL JNK INHIBITORS” (Schering Corporation, priority 2006, published 2010)",
  "assay_type_in_all_cases": "biochemical",
  "key": {"[1]": {"target": "JNK1 (Homo sapiens, UniProt P45983)", "sequence (P45983 whole entry, species assumed)": "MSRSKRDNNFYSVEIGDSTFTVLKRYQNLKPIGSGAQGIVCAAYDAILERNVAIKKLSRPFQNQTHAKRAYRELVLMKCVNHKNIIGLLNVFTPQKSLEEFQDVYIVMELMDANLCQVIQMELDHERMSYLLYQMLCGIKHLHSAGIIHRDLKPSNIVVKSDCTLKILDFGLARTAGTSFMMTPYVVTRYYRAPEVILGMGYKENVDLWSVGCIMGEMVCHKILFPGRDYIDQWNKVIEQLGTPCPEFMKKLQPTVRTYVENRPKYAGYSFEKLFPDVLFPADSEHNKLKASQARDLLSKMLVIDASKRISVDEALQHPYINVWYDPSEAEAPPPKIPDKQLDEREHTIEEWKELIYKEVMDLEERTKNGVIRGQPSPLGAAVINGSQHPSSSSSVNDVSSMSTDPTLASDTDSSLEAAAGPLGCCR", "experiment": "JNK1 kinase DELFIA (phosphorylation of biotinylated GST-ATF2)", "protocol": "(§1) Before initiation of kinase reactions, compounds were pre-incubated with the enzyme for 10 minutes. Pre-incubation reactions contained 50 mM HEPES pH 7.3, 10 mM MgCl2, 1 mM DTT, 75 mM NaCl, 1 mM EDTA, 1 mM EGTA, 0.01% CHAPS, 2 nM JNK1, 6 ug/mL biotinylated GST-ATF2, 0.1 mg/ml BSA, 5% DMSO and 0-100 μM compound in a total volume of 40 μL. After a 10 minute room temperature pre-incubation, 10 μL of 35 μM ATP was added to start the reaction (final concentration of ATP=7 uM). Reactions were incubated at room temperature for 30 minutes. A small aliquot (10 uL) was taken and quenched by adding into 190 uL of DELFIA Assay buffer containing 100 mM EDTA. The amount of phosphate transferred to biotinylated GST-ATF2 was measured using the Dissociation Enhanced Lanthanide Fluorescence Immuno-assay (DELFIA) from Perkin Elmer according to manufacturers protocol. Briefly, biotinylated GST-ATF2 was captured on streptavidin coated plates for 1 hour, washed twice, then incubated for 1 hour with a 1:1000 dilution of rabbit-anti-phospho-ATF2 antibody and a 1:3500 dilution of Europium-labeled anti-rabbit secondary antibody. Free antibody was removed with six washes, Europium was dissociated from the antibody, and Europium fluorescence was measured using an excitation wavelength of 340 nm and an emission wavelength of 615 nm. JNK2 and JNK3 kinase reactions were carried out similarly, with the exception that the final concentration of ATP was 4 uM and 2 uM, respectively."}, "[2]": {"target": "JNK2 (Homo sapiens, UniProt P45984)", "sequence (P45984 whole entry, species assumed)": "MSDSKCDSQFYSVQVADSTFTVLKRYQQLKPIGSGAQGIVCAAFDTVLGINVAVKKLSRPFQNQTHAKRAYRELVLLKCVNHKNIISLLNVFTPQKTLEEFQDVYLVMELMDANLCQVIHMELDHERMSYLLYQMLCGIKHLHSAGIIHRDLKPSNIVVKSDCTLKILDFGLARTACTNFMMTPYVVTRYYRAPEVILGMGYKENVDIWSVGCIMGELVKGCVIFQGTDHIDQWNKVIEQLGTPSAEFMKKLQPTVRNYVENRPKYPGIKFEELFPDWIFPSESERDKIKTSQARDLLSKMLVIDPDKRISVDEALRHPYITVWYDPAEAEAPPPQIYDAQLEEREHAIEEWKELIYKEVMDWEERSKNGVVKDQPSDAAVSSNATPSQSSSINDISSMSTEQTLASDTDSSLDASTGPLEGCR", "experiment": "JNK2 kinase DELFIA (phosphorylation of biotinylated GST-ATF2)", "details": "final ATP 4 uM, reported as range for a group", "protocol": "as §1"}, "[3]": {"target": "JNK3 (Homo sapiens, UniProt P53779)", "sequence (P53779 whole entry, species assumed)": "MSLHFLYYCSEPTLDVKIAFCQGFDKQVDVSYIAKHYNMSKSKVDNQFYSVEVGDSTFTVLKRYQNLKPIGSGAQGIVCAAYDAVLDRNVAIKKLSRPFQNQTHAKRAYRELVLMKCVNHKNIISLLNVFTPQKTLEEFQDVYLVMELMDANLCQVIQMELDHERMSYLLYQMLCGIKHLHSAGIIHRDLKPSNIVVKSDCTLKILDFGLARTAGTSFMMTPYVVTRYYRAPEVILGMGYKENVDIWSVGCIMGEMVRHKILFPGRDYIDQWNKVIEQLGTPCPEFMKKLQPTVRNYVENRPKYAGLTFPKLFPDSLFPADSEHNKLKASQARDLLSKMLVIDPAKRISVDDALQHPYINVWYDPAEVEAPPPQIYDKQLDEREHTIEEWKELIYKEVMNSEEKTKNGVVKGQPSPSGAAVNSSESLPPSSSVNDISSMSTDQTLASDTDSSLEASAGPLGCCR", "experiment": "JNK3 kinase DELFIA (phosphorylation of biotinylated GST-ATF2)", "details": "final ATP 2 uM", "protocol": "as §1"}, "[4]": {"details": "DELFIA, 2 nM JNK1, final ATP 7 uM, 10 min pre-incubation, reported as range for a group"}},
  "note": "Values joined by “and” are separate entries in the source; they are usually repeats but may differ in a detail not shown here. Equal values may be shown once. Read-outs that look alike come from different tables or passages of the source.",
  "data": [
    {"smiles": "CCc1nc2c(C(=O)NCc3ccc4nc(C)n(C)c4c3)cccn2c1C(=O)N[C@H](CO)CC(C)C", "note": "[Compound 463]", "values": [
      {"measurement": "IC50", "setting": "[1]; [4]", "value": "6 to 20", "unit": "nM"},
      {"measurement": "IC50", "setting": "[2]", "value": "4 to 46", "unit": "nM"},
      {"measurement": "IC50", "setting": "[3]", "value": "9 to 50", "unit": "nM"}
    ]},
    {"smiles": "CC(C)(C)[C@@H](CO)NC(=O)c1c(-c2ccsc2)nc2c(C(=O)NCc3ccc4nc(N)sc4c3)cccn12", "note": "[Compound 17]", "values": [
      {"measurement": "IC50", "setting": "[1]; [4]", "value": "6 to 100", "unit": "nM"},
      {"measurement": "IC50", "setting": "[2]", "value": "4 to 46", "unit": "nM"},
      {"measurement": "IC50", "setting": "[3]", "value": "9 to 50", "unit": "nM"}
    ]},
    {"smiles": "Nc1nc2ccc(CNC(=O)c3cccn4c(C(=O)N[C@H](CO)c5ccccc5)c(-c5ccsc5)nc34)cc2s1", "note": "[Compound 16]", "values": [
      {"measurement": "IC50", "setting": "[1]; [4]", "value": "6 to 100 nM and 6 to 20 nM"},
      {"measurement": "IC50", "setting": "[1]; read-out: JNK 1 IC50", "value": 19, "unit": "nM"},
      {"measurement": "IC50", "setting": "[2]", "value": "4 to 46", "unit": "nM"},
      {"measurement": "IC50", "setting": "[3]", "value": "9 to 50", "unit": "nM"}
    ]},
    {"smiles": "CC(C)C[C@@H](CO)NC(=O)c1c(-c2ccsc2)nc2c(C(=O)NCc3ccc(N4CCN(C)CC4)nc3)cccn12", "note": "[Compound 299]", "values": [
      {"measurement": "IC50", "setting": "[1]; [4]", "value": "6 to 100", "unit": "nM"},
      {"measurement": "IC50", "setting": "[2]", "value": "4 to 46", "unit": "nM"},
      {"measurement": "IC50", "setting": "[3]", "value": "9 to 50", "unit": "nM"}
    ]},
    {"smiles": "CC(C)C[C@@H](CO)NC(=O)c1c(-c2cc(F)cc(F)c2)nc2c(C(=O)NCc3ccc4nc(N)sc4c3)cccn12", "note": "[Compound 544]", "values": [
      {"measurement": "IC50", "setting": "[1]; [4]", "value": "6 to 100", "unit": "nM"},
      {"measurement": "IC50", "setting": "[1]; read-out: JNK 1 IC50", "value": 23, "unit": "nM"},
      {"measurement": "IC50", "setting": "[2]", "value": "4 to 46", "unit": "nM"},
      {"measurement": "IC50", "setting": "[3]", "value": "9 to 50", "unit": "nM"}
    ]},
    {"smiles": "CC(C)C[C@@H](CO)NC(=O)c1c(-c2ccsc2)nc2c(C(=O)NCc3ccc(N)nc3)cccn12", "note": "[Compound 327]", "values": [
      {"measurement": "IC50", "setting": "[1]; [4]", "value": "6 to 100", "unit": "nM"},
      {"measurement": "IC50", "setting": "[2]", "value": "4 to 46", "unit": "nM"},
      {"measurement": "IC50", "setting": "[3]", "value": "54 to 98", "unit": "nM"}
    ]},
    {"smiles": "Cc1nc2ccc(CNC(=O)c3cccn4c(C(=O)N[C@H](CO)CC(C)C)c(-c5ccccn5)nc34)cc2[nH]1", "note": "[Compound 479]", "values": [
      {"measurement": "IC50", "setting": "[1]; [4]", "value": "6 to 100 nM and 6 to 20 nM and 6 to 10 nM"},
      {"measurement": "IC50", "setting": "[2]", "value": "4 to 46", "unit": "nM"},
      {"measurement": "IC50", "setting": "[3]", "value": "9 to 50", "unit": "nM"}
    ]},
    {"smiles": "CNc1nc2ccc(CNC(=O)c3cccn4c(C(=O)N[C@H](CO)CC(C)C)c(-c5ccsc5)nc34)cc2s1", "note": "[Compound 155]", "values": [
      {"measurement": "IC50", "setting": "[2]", "value": "4 to 46", "unit": "nM"},
      {"measurement": "IC50", "setting": "[3]", "value": "9 to 50", "unit": "nM"}
    ]},
    {"smiles": "CC(C)C[C@H](CO)NC(=O)c1c(-c2ccsc2)nc2c(C(=O)NCc3ccc(S(C)(=O)=O)cc3)cccn12", "note": "[Compound 205]", "values": [
      {"measurement": "IC50", "setting": "[2]", "value": "52 to 94", "unit": "nM"},
      {"measurement": "IC50", "setting": "[3]", "value": "54 to 98", "unit": "nM"}
    ]},
    {"smiles": "CC(C)C[C@@H](CO)NC(=O)c1c(-c2ccsc2)nc2c(C(=O)NCC3CCN(C(=O)c4cccnc4)CC3)cccn12", "note": "[Compound 230]", "values": [
      {"measurement": "IC50", "setting": "[2]", "value": "201 to 666", "unit": "nM"},
      {"measurement": "IC50", "setting": "[3]", "value": "209 to 479", "unit": "nM"}
    ]},
    {"smiles": "CC(C)C[C@@H](CO)NC(=O)c1c(-c2ccsc2)nc2c(C(=O)NCc3ccc(-c4ccccn4)s3)cccn12", "note": "[Compound 215]", "values": [
      {"measurement": "IC50", "setting": "[2]", "value": "52 to 94", "unit": "nM"},
      {"measurement": "IC50", "setting": "[3]", "value": "9 to 50", "unit": "nM"}
    ]},
    {"smiles": "CC(C)C[C@@H](CO)NC(=O)c1c(-c2ccsc2)nc2c(C(=O)NCc3ccc(N4CCCC4=O)cc3)cccn12", "note": "[Compound 206]", "values": [
      {"measurement": "IC50", "setting": "[2]", "value": "52 to 94", "unit": "nM"},
      {"measurement": "IC50", "setting": "[3]", "value": "54 to 98", "unit": "nM"}
    ]},
    {"smiles": "C[C@@H](NC(=O)c1c(-c2ccsc2)nc2c(C(=O)NCc3ccc4nc(N)sc4c3)cccn12)[C@@H](O)c1ccccc1", "note": "[Compound 62]", "values": [
      {"measurement": "IC50", "setting": "[2]", "value": "107 to 173", "unit": "nM"},
      {"measurement": "IC50", "setting": "[3]", "value": "54 to 98", "unit": "nM"}
    ]},
    {"smiles": "CC(C)C[C@@H](CO)NC(=O)c1c(-c2ccsc2)nc2c(C(=O)NCc3ccc4ncsc4c3)cccn12", "note": "[Compound 113]", "values": [
      {"measurement": "IC50", "setting": "[2]", "value": "52 to 94", "unit": "nM"},
      {"measurement": "IC50", "setting": "[3]", "value": "54 to 98", "unit": "nM"}
    ]},
    {"smiles": "Nc1nc2ccc(CNC(=O)c3cccn4c(C(=O)NCC5(O)CCCCC5)c(-c5ccsc5)nc34)cc2s1", "note": "[Compound 15]", "values": [
      {"measurement": "IC50", "setting": "[2]", "value": "107 to 173", "unit": "nM"},
      {"measurement": "IC50", "setting": "[3]", "value": "118 to 174", "unit": "nM"}
    ]},
    {"smiles": "CC[C@@H](CO)NC(=O)c1c(-c2ccsc2)nc2c(C(=O)NCc3ccc(Cl)nc3)cccn12", "note": "[Compound 181]", "values": [
      {"measurement": "IC50", "setting": "[2]", "value": "201 to 666", "unit": "nM"},
      {"measurement": "IC50", "setting": "[3]", "value": "118 to 174", "unit": "nM"}
    ]},
    {"smiles": "CC[C@@H](CO)NC(=O)c1c(-c2ccsc2)nc2c(C(=O)NCc3ccc(-n4nccc4C(C)C)cc3)cccn12", "note": "[Compound 178]", "values": [
      {"measurement": "IC50", "setting": "[2]", "value": "201 to 666", "unit": "nM"},
      {"measurement": "IC50", "setting": "[3]", "value": "209 to 479", "unit": "nM"}
    ]},
    {"smiles": "CC[C@H](CO)NC(=O)c1c(-c2ccsc2)nc2c(C(=O)N[C@@H](C)c3ccc(S(C)(=O)=O)cc3)cccn12", "note": "[Compound 170]", "values": [
      {"measurement": "IC50", "setting": "[2]", "value": "1070 to 11500", "unit": "nM"},
      {"measurement": "IC50", "setting": "[3]", "value": "118 to 174", "unit": "nM"}
    ]},
    {"smiles": "C[C@H](CO)NC(=O)c1c(-c2ccsc2)nc2c(C(=O)NCc3ccc4nc(N)sc4c3)cccn12", "note": "[Compound 23]", "values": [
      {"measurement": "IC50", "setting": "[2]", "value": "107 to 173", "unit": "nM"},
      {"measurement": "IC50", "setting": "[3]", "value": "118 to 174", "unit": "nM"}
    ]},
    {"smiles": "CC[C@@H](CO)NC(=O)c1c(-c2ccsc2)nc2c(C(=O)NCc3ccc4nc(N)sc4c3)cccn12", "note": "[Compound 13]", "values": [
      {"measurement": "IC50", "setting": "[2]", "value": "201 to 666", "unit": "nM"},
      {"measurement": "IC50", "setting": "[3]", "value": "54 to 98", "unit": "nM"}
    ]},
    {"smiles": "Cc1cc(C(=O)NCc2ccc3nc(N)sc3c2)c2nc(-c3ccsc3)c(C(=O)N[C@@H](CO)CC(C)C)n2c1", "note": "[Compound 350]", "values": [
      {"measurement": "IC50", "setting": "[2]", "value": "1070 to 11500", "unit": "nM"},
      {"measurement": "IC50", "setting": "[3]", "value": 16100, "unit": "nM"}
    ]}
  ]
}
